5 compounds from patent US7816409B2, “Stable pharmaceutical composition of fluoroether compound for anesthetic use method for stabilizing a fluoroether compound, use of stabilizer agent for precluding the degradation of a fluoroether compound” (Cristalia Productos Quimicos Farmaceuticos LTDA, priority 2003, dated 2010) can be followed below.

Data set [1] can be described thus: Stress degradation of sevoflurane with or without alumina, gas chromatography with toluene internal standard. Format: physicochemical. The procedure: In the following examples, all analyses by gas chromatography were carried out by adding 2 μL of toluene (internal standard) in 10 mL of sample of sevoflurane in study. The analysis was done in duplicates and for each chromatogram obtained was calculated the ratio of the area of each impurity/area of toluene.
In two type III glass bottle with capacity of 100 mL, was added 20 mL of anhydrous sevoflurane and in one of the bottles was added 20 mg of alumina totalizing 1.0 mg of Al2O3 per mL of sevoflurane. Both bottles were closed with a stopper and screw metallic cap and heated in a stove at 60° C. for 22 hours. After that period, the samples were analyzed in duplicates by gas chromatography using the internal standard addition method (toluene). […] The degradation products of sevoflurane monitored by gas chromatography, HFIP, Acetal, 2, 5, 7 and 8, are present in high amounts in the samples of sevoflurane containing alumina after heating, as presented in FIG. 4.
The samples were prepared and placed in type III glass bottle and the bottles were closed with stopper and screw metallic cap.
The samples were submitted to two stress conditions by heating in stove at 60° C. for a cycle of 22 hours and other of 72 hours.
The sample was prepared to contain 0, 50, 200, 600, 1000 and 1400 ppm of the stabilizer agent. […] The study comprises put sevoflurane in contact with an acid substance, submits the samples to a stress by heating at 60° C. for 22 hours and, by comparison evaluates the chromatographic purity of sevoflurane after stress. The activated alumina was employed as acid substance in a constant quantity of 1 mg per mL of sevoflurane.
In type III glass bottle with capacity for 100 mL was transferred 20 mL of test sevoflurane containing determined quantities of the stabilizer agent (0, 50, 200, 600, 1000 and 1400 ppm) and 20 mg of alumina. The bottles were immediately closed with a stopper and a screw metallic cap. These bottles were heated in a stove at 60° C. for 22 hours. After the stress the samples were analyzed in duplicate by gas chromatography using the internal standard addition method (toluene). In parallel, studies were done with the quantity determined of the stabilizer (0, 50, 200, 600, 1000 and 1400 ppm) without alumina.
Table 2 resumes the tests realized with the agents propylene glycol and menthol proposed for the stabilization of sevoflurane against the degradation by alumina and the results for total impurity and for the single impurity HFIP obtained with and without alumina after stress at 60° C. for 22 hours. The total impurity is the sum of the ratio between the area for each impurity and the area of the internal standard (toluene) and HFIP is the ratio between the area of HFIP and the area of toluene obtained in the chromatograms.

Data set [2] in a line: Limit of fluoride in sevoflurane after stress with alumina. The data set is classed as physicochemical. The procedure: (§1) In this study alumina was employed in a final concentration of 1 mg per mL of sevoflurane.
Another important factor observed in the present study is the quantity of fluoride in the sample submitted to stress.
(§2) Alumina was employed in a final concentration of 1 mg per mL of sevoflurane.

Data set [3] in a line: Chromatographic purity and impurities of sevoflurane after stress with alumina (Pharmacopeial Forum USP specifications). Format: physicochemical. The settings on record: for degradation of sevoflurane by alumina: Example 5, 260 ppm stabilizer. The procedure: as §1, §2
Data set [4] is described as follows: Saturation level / solubility of stabilizer in sevoflurane. The source says:
The stabilizer agent for the fluoroether compound, and most particularly for the sevoflurane, is employed in concentration ranging from 0.001% in weight in relation to the weight of sevoflurane until its level of saturation in the sevoflurane, that is, the maximum concentration in which it keeps soluble in the sevoflurane. The amount of stabilizer agent to achieve its saturation depends on the stabilizer and temperature, and can be high due to the solubility profile among these substances.
Among the appropriate polyalcohols to the stabilization of the fluoroether compound sevoflurane, propylene glycol, polyethylene glycol, hexylene glycol and 1,3-butileneglycol are chosen. […] As cited before, the amount of the stabilizer agent will range from 0.001% in weight until its saturation level in sevoflurane. […] Therefore, in a general way, the polyalcohols are preferably employed in amounts ranging from 0.001% to 5.0% in weight in relation to the weight of sevoflurane.

Where [5] appears, read: Table 5, sevoflurane with 260 ppm stabilizer, alumina 1 mg per mL, 60° C. for 22 hours.
[6] abbreviates: Table 6, sevoflurane with water 260 ppm or PG + water 260:260 ppm, alumina 1 mg per mL, 60° C. for 22 hours.
The mark [7] stands for this setting: alumina 1 mg per mL, 60° C. for 22 hours.
Setting [8] is: Table 4, sevoflurane with 260 ppm stabilizer, alumina 1 mg per mL, 60° C. for 22 hours.
[9] abbreviates: Table 6, initial analysis of anhydrous sevoflurane before stress.
[10] abbreviates: Table 4, initial analysis of anhydrous sevoflurane before stress.
Setting [11] is: anhydrous sevoflurane, stabilizer 0 ppm, 60° C. for 22 hours, 0 mg of Al2O3.
Where [12] appears, read: anhydrous sevoflurane, stabilizer 0 ppm, 60° C. for 22 hours, 20 mg of Al2O3.
The mark [13] stands for this setting: anhydrous sevoflurane, stabilizer 50 ppm, 60° C. for 22 hours, 0 mg of Al2O3.
Setting [14] is: anhydrous sevoflurane, stabilizer 50 ppm, 60° C. for 22 hours, 20 mg of Al2O3.
[15] abbreviates: anhydrous sevoflurane, stabilizer 200 ppm, 60° C. for 22 hours, 0 mg of Al2O3.
[16] abbreviates: anhydrous sevoflurane, stabilizer 200 ppm, 60° C. for 22 hours, 20 mg of Al2O3.
The mark [17] stands for this setting: anhydrous sevoflurane, stabilizer 600 ppm, 60° C. for 22 hours, 0 mg of Al2O3.
The mark [18] stands for this setting: anhydrous sevoflurane, stabilizer 600 ppm, 60° C. for 22 hours, 20 mg of Al2O3.
Setting [19] is: anhydrous sevoflurane, stabilizer 1000 ppm, 60° C. for 22 hours, 0 mg of Al2O3.
Where [20] appears, read: anhydrous sevoflurane, stabilizer 1000 ppm, 60° C. for 22 hours, 20 mg of Al2O3.
The mark [21] stands for this setting: anhydrous sevoflurane, stabilizer 1400 ppm, 60° C. for 22 hours, 0 mg of Al2O3.
The mark [22] stands for this setting: anhydrous sevoflurane, stabilizer 1400 ppm, 60° C. for 22 hours, 20 mg of Al2O3.
The mark [23] stands for this setting: sevoflurane, stabilizer 50 ppm, stress at 60° C. for 12 hours, 0 mg of Al2O3.
The mark [24] stands for this setting: sevoflurane, stabilizer 50 ppm, stress at 60° C. for 12 hours, 20 mg of Al2O3.

As to `O` [Water], the “water content from which degradation of sevoflurane by alumina is inhibited” value in data set [1] (Example 2, alumina 1 mg per mL, 60° C.) is at least 600 ppm. The “degradation of sevoflurane by alumina” value in data set [1] (Example 4, 50 ppm stabilizer, alumina 1 mg per mL) is “incapable to completely inhibit”. Moreover, the “increase of impurity HFIP value in relation to the sample without alumina” value in data set [1] (sevoflurane containing water, with alumina) is given as “about 10 times”. In addition, the Limit of fluoride in data set [2] (setting [5]) worked out at 16.950 µg/mL. Further, the “Limit of fluoride” value in data set [2] (setting [6]) worked out at 15.340 µg/mL. Further, the “degradation of sevoflurane by alumina” value in data set [3] (setting [7]) is reported as “didn't inhibit the degradation”. Also, in data set [3] (setting [8]), the “Compound A” value was found to be 11.8 µg/g, the Purity was found to be 99.8944%, the Single impurity was 403 µg/g and the “Total Impurity” value came out at 1056.1 µg/g. In addition, in data set [3] (setting [6]), the Purity is recorded as 99.8899%, the Single impurity was found to be 422.8 µg/g and the Total impurities was determined as 1101.3 µg/g.
Turning to PEG 400, the “solubility in sevoflurane” value in data set [4] is given as “freely soluble”.
The compound `FCOC(C(F)(F)F)C(F)(F)F` [Anhydrous Sevoflurane, fluoromethyl 2,2,2-trifluoro-1-(trifluoromethyl)ethyl ether] showed a Limit of fluoride in data set [2] (Table 5, initial analysis of anhydrous sevoflurane before stress) of 0.050 µg/mL. Besides, the “Limit of fluoride” value in data set [2] (setting [9]) was 0.072 µg/mL. Moreover, in data set [3] (setting [10]), the “Compound A” value worked out at 11.2 µg/g, the Purity is reported as 99.9798%, the Single impurity stood at 63.7 µg/g and the “Total Impurity” value is 201.8 µg/g. Moreover, in data set [3] (setting [9]), the Purity was 99.9907%, the Single impurity came to 42.1 µg/g and the Total impurities was 93.0 µg/g.
Take `CC(O)CO` (centres unmarked) [Propylene glycol, 1,2-propanediol]: the “HFIP (average ratio area of HFIP/area of toluene)” value in data set [1] (setting [11]) worked out at 0.0491; in data set [1] (setting [12]) it was 0.6680; in data set [1] (setting [13]), 0; in data set [1] (setting [14]), 0.05996; in data set [1] (setting [15]) it was 0.04474; in data set [1] (setting [16]), 0.04072. The “HFIP (average ratio area of HFIP/area of toluene)” value is reported as 0.04694 in data set [1] (setting [17]); 0.04603 in data set [1] (setting [18]); 0.04038 in data set [1] (setting [19]); 0.04353 in data set [1] (setting [20]); 0.04159 in data set [1] (setting [21]); 0.04236 in data set [1] (setting [22]). Also, the “HFIP (average ratio area of HFIP/area of toluene)” value is given as 0.00338 in data set [1] (setting [23]) and 0.02051 in data set [1] (setting [24]). Further, the “Total Impurity (average sum of ratios area of each impurity/area of toluene)” value in data set [1] (setting [11]) stood at 0.3304; in data set [1] (setting [12]) it was 31.65; in data set [1] (setting [13]), 0.3293; in data set [1] (setting [14]) it was 0.3925; in data set [1] (setting [15]), 0.3546; in data set [1] (setting [16]), 0.2823. Also, the “Total Impurity (average sum of ratios area of each impurity/area of toluene)” value is given as 0.2925 in data set [1] (setting [17]); 0.3158 in data set [1] (setting [18]); 0.3800 in data set [1] (setting [19]); 0.3189 in data set [1] (setting [20]); 0.3061 in data set [1] (setting [21]); 0.3235 in data set [1] (setting [22]). Moreover, the “Total Impurity (average sum of ratios area of each impurity/area of toluene)” value in data set [1] (setting [23]) came out at 0.3236; in data set [1] (setting [24]), 0.3963. The “saturation level in sevoflurane” value in data set [4] is recorded as “around 2.5%”. The compound also showed a Limit of fluoride in data set [2] (setting [5]) of 0.051 µg/mL. In addition, the “degradation of sevoflurane by alumina” value in data set [3] (setting [7]) was “didn't show any degradation”. The “Compound A” value in data set [3] (setting [8]) amounted to 11.3 µg/g. Further, the Purity in data set [3] (setting [8]) is 99.9774%. The compound further showed a Single impurity in data set [3] (setting [8]) of 61.7 µg/g. Besides, the “Total Impurity” value in data set [3] (setting [8]) is 226.3 µg/g.
Regarding `CC1CCC(C(C)C)C(O)C1` (stereo not drawn) [MENTHOL, (1 alpha, 2 beta, 5 alpha)-5-methyl-2-(1-methylethyl)cyclohexanol], the “HFIP (average ratio area of HFIP/area of toluene)” value is given as 0.0408 in data set [1] (setting [11]); 0.8914 in data set [1] (setting [12]); 0.04541 in data set [1] (setting [13]); 0.6402 in data set [1] (setting [14]); 0.04228 in data set [1] (setting [15]); 0.5880 in data set [1] (setting [16]). Moreover, the “HFIP (average ratio area of HFIP/area of toluene)” value in data set [1] (setting [17]) was 0.04445; in data set [1] (setting [18]) it was 0.4426; in data set [1] (setting [19]), 0.04669; in data set [1] (setting [20]) it was 0.3787; in data set [1] (setting [21]), 0.04325; in data set [1] (setting [22]) it was 0.3329. Further, the “Total Impurity (average sum of ratios area of each impurity/area of toluene)” value is reported as 0.3083 in data set [1] (setting [11]); 37.5478 in data set [1] (setting [12]); 0.3174 in data set [1] (setting [13]); 1.0412 in data set [1] (setting [14]); 0.2918 in data set [1] (setting [15]); 1.0773 in data set [1] (setting [16]). The “Total Impurity (average sum of ratios area of each impurity/area of toluene)” value in data set [1] (setting [17]) was found to be 0.3319; in data set [1] (setting [18]), 1.0001; in data set [1] (setting [19]) it was 0.3627; in data set [1] (setting [20]), 0.9486; in data set [1] (setting [21]), 0.3644; in data set [1] (setting [22]), 1.0156. Besides, in data set [4], the “saturation level in sevoflurane” value was “about 6.8%”.
